Laboratory results: ChEMBL document CHEMBL3399992, “Identification of anti-HIV agents with a novel benzo[4,5]isothiazolo[2,3-a]pyrimidine scaffold” (Bioorg Med Chem, 2015)
Activity calls are given as the source filed them. No cut-off for these calls is given here.

Assays:
[1] = system: Human immunodeficiency virus; test: Antiviral activity against HIV 3B assessed as inhibition of infection of NCK45-beta-Gal cells after 48 hrs; format: functional, organism-based; settings: Human immunodeficiency virus 1, 3B
[2] = Cytotoxicity against human NCK45 cells at 10 uM; format: cell-based; settings: nck45, 10 µM
[3] = system: Human immunodeficiency virus; test: Antiviral activity against HIV 3B assessed as prevention of early stage infection of NCK45-beta-Gal cells up to 48 hrs; format: functional, organism-based

| Compound | EC50 [1] | Activity [2] | inhibition [3] |
| --- | --- | --- | --- |
| c1cc(-c2ccc3c(c2)SN2CCCN=C32)ccn1 | 560 nM | Non-toxic | – |
| c1ccc(-c2ccc3c(c2)C2=NCCCN2S3)cc1 | 560 nM | Non-toxic | – |
| COc1cccc(-c2ccc3c(c2)SN2CCCN=C32)c1 | 100 nM | Non-toxic | – |
| N=C1Sc2ccccc2C2=NCCCN12 | 300 nM | – | Active |
| c1cncc(-c2ccc3c(c2)SN2CCCN=C32)c1 | 560 nM | Non-toxic | – |
| c1ccc2cc(-c3ccc4c(c3)SN3CCCN=C43)ccc2c1 | 120 nM | Non-toxic | – |
| COc1ccc(-c2ccc3c(c2)SN2CCCN=C32)cc1 | 90 nM | Toxic | – |
| O=[N+]([O-])c1cccc(-c2ccc3c(c2)SN2CCCN=C32)c1 | 120 nM | Non-toxic | – |
| COC(=O)c1ccc(-c2ccc3c(c2)SN2CCCN=C32)cc1 | 160 nM | Non-toxic | – |
| O=[N+]([O-])c1ccc(-c2ccc3c(c2)SN2CCCN=C32)cc1 | 80 nM | Non-toxic | – |
| COC(=O)c1cccc(-c2ccc3c(c2)SN2CCCN=C32)c1 | 50 nM | Non-toxic | Active |
| Oc1ccc(-c2ccc3c(c2)SN2CCCN=C32)cc1 | 1280 nM | Non-toxic | – |
| c1cn(-c2ccc3c(c2)SN2CCCN=C32)nn1 | 420 nM | Non-toxic | – |
| c1cc2c(cc1-c1ccc3c(c1)SN1CCCN=C31)OCO2 | 160 nM | Non-toxic | – |
| c1cc(-c2ccc3c(c2)SN2CCCN=C32)cs1 | 80 nM | Non-toxic | – |

Now from value to compound, other results behind:

| EC50 [1] | Compound | Activity [2] | inhibition [3] |
| --- | --- | --- | --- |
| > 1000 nM | c1ccc2c3c(ccc2c1)C1=NCCCN1S3 | Toxic | – |
| 220 nM | Brc1ccc2c(c1)SN1CCCN=C21 | Non-toxic | – |
| 290 nM | c1ccc2c(c1)SN1CCCN=C21 | Non-toxic | Active |
| 1470 nM | Oc1cccc(-c2ccc3c(c2)SN2CCCN=C32)c1 | Non-toxic | – |
| 580 nM | COc1ccc2c(c1)SN1CCCN=C21 | Non-toxic | – |
| > 10000 nM | Brc1cccc2c1SN1CCCN=C21 | Non-toxic | – |
| 1790 nM | O=[N+]([O-])c1ccc2c(c1)SN1CCCN=C21 | Non-toxic | – |
| 1010 nM | Brc1ccc2c(c1)C1=NCCCN1S2 | Non-toxic | – |
| 300 nM | c1ccc(-c2ccc3c(c2)SN2CCCN=C32)cc1 | Non-toxic | – |
| 2110 nM | COc1ccc2c(c1)C1=NCCCN1S2 | Non-toxic | – |
| 1280 nM | FC(F)(F)c1ccc2c(c1)SN1CCCN=C21 | Non-toxic | – |
| > 10000 nM | CC(=O)Nc1ccc2c(c1)SN1CCCN=C21 | Non-toxic | – |
| 50 nM | c1coc(-c2ccc3c(c2)SN2CCCN=C32)c1 | Non-toxic | Active |
| 340 nM | c1ccc(-c2ccc3c(c2)SN2CCCN=C32)nc1 | Non-toxic | – |
| 1780 nM | FC(F)(F)c1ccc2c(c1)C1=NCCCN1S2 | Non-toxic | – |
| 410 nM | c1cnn(-c2ccc3c(c2)SN2CCCN=C32)c1 | Non-toxic | – |
| 850 nM | Cc1ccc2c(c1)C1=NCCCN1S2 | Non-toxic | – |
